What was measured:
RARbeta [1] = molecular target: T1, RARbeta (Homo sapiens, UniProt P10826); assay: Transactivation assay (luciferase reporter, HeLa stable transfectants), RARbeta; assay type: cell-based
T1 construct: RARbeta Kdapp; RARbeta AC50; other: maximum level of activity obtained, relative to 100% control total agonist
T1 sequence (P10826 183-417 limits assumed): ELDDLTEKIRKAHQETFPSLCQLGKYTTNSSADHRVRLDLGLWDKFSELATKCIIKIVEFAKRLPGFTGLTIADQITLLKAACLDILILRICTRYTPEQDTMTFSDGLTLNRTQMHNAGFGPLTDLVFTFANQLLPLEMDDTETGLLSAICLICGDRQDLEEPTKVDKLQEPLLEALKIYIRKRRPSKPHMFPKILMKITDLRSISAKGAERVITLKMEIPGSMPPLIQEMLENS
Description: (§1) The compounds according to the invention have activating properties on RARbeta-type receptors. This RARbeta receptor-activating activity can in particular be measured in a transactivation assay by means of the dissocation constant Kdapp (apparent), the AC50 (concentration giving 50% of the activity of the reference molecule) and also by means of the % activation.
(§2) The activation of receptors with an agonist (activator) in HeLa cells leads to the expression of a reporter gene, luciferase, which, in the presence of a substrate, generates light. The activation of the receptors can thus be measured by quantifying the luminescence produced after incubating the cells in the presence of a reference antagonist. Activating products will displace the antagonist from its site, thus allowing activation of the receptor. The activity is measured by quantifying the increase in light produced. This measurement makes it possible to determine the activating activity of the compound according to the invention.
(§3) In this study, a constant is determined which represents the affinity of the molecule for the receptor. Since this value can fluctuate depending on the basal activity and the expression of the receptor, it is referred to as the Kd apparent (Kdapp).
(§4) To determine this constant, “crossed curves” of the test product against a reference antagonist, otherwise referred to as reference ligand, 4-(5,5-dimethyl-8-p-tolyl-5,6-dihydronaphthalen-2-ylethynyl)benzoic acid, are realized in 96-well plates. The test product is used at 10 concentrations and the reference antagonist at 7 concentrations. In each, the cells are in contact with a concentration of the test product and with a concentration of the reference antagonist, 4-(5,5-dimethyl-8-p-tolyl-5,6-dihydronaphthalen-2-ylethynyl)benzoic acid. […]
(§5) These crossed curves make it possible to determine the AC50 values (concentration at which 50% activation is observed) for the reference ligand at various concentrations of test product. These AC50 values are used to calculate the Schild regression by plotting a straight line corresponding to the Schild equation (“quantitation in receptor pharmacology” Terry P. Kenakin, Receptors and Channels, 2001, 7, 371-385).
(§6) In the case of an agonist, an AC50 value (concentration giving 50% activity) is calculated by plotting the curve of the product at the concentration of the reference ligand that gives 80% activation. The % activation which corresponds to the maximum level of activity obtained is also measured. […]
(§7) The culture medium is removed by turning the plates over, and 100 μl of a 1:1 PBS/luciferin mixture are added to each well. After 5 minutes, the plates are read using a luminescence reader.

RARbeta [2] = assay: as above; assay type: cell-based, human; conditions: RARbeta Kdapp to RARalpha or RARgamma Kdapp
Description: as §1, §2, §3, §4, §5, §6, §7

RARgamma = molecular target: T2, RARgamma (Homo sapiens, UniProt P13631); assay: Transactivation assay (luciferase reporter, HeLa stable transfectants), RARgamma; assay type: cell-based
T2 sequence (P13631 185-419 limits assumed): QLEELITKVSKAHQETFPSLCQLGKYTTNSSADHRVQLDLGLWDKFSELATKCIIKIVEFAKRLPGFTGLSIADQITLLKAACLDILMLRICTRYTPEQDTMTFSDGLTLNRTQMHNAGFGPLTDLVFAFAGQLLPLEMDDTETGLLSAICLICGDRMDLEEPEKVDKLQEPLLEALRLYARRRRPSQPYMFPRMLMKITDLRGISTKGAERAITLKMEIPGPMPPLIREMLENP
Description: [The procedure below names another target; the source lists this target under the same test.] as §1, §2
(§8) In this study, a constant is determined which represents the affinity of the molecule for the receptor. […]
as §5, §6, §7

RARalpha = molecular target: T3, RARalpha (Homo sapiens, UniProt P10276); assay: Transactivation assay (luciferase reporter, HeLa stable transfectants), RARalpha; assay type: cell-based
T3 sequence (P10276 183-417 limits assumed): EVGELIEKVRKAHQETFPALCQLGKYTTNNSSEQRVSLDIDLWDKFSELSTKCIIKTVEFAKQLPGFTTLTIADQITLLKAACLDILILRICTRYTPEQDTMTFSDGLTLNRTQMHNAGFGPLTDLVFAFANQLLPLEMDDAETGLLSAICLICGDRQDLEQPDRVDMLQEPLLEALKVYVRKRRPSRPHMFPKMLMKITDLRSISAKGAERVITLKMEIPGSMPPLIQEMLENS
Description: [The procedure below names another target; the source lists this target under the same test.] as §1, §2, §8, §5, §6, §7

[3] = concentration giving 50% activity, at the reference ligand concentration giving 80% activation, HeLa cells
[4] = maximum level of activity obtained, relative to 100% control total agonist

Kd (RARbeta [1]; apparent Kd from Schild regression, crossed curves against reference antagonist, HeLa cells, read-out: RARbeta Kdapp): 0.06 µM | AC50 (RARbeta [1]; [3]): 0.012 µM | RARbeta % activation (RARbeta [1]; [4]): 100% | Kd (RARgamma; apparent Kd from Schild regression, crossed curves against reference antagonist, HeLa cells, read-out: RARgamma Kdapp): 4 µM | AC50 (RARgamma; [3]): 2 µM | RARgamma % activation (RARgamma; [4]): 40% | Kd (RARalpha; apparent Kd from Schild regression, crossed curves against reference antagonist, HeLa cells, read-out: RARalpha Kdapp): 8 µM | AC50 (RARalpha; [3]): 1.8 µM | RARalpha % activation (RARalpha; [4]): 20%
Structure (SMILES): CC1(C)OCC(COc2ccc(-c3ccc4cc(C(=O)O)ccc4c3)cc2C23CC4CC(CC(C4)C2)C3)O1 (stereo not shown) [Ex. 1, 6-[3-adamantan-1-yl-4-(2,2-dimethyl[1,3]dioxolan-4-ylmethoxy)phenyl]naphthalene-2-carboxylic acid]
ratio of the Kdapp values R (RARbeta [2]): 0.015
